ChEMBL document CHEMBL5154884, “Discovery of a Novel Src Homology-2 Domain Containing Protein Tyrosine Phosphatase-2 (SHP2) and Cyclin-Dependent Kinase 4 (CDK4) Dual Inhibitor for the Treatment of Triple-Negative Breast Cancer” (J Med Chem, 2022)
Active and inactive are the calls of the source. The calls are words filed in the database; no cut-off is given here.

How the values were obtained:
[1] = target: T1, Tyrosine-protein phosphatase non-receptor type 11 (Homo sapiens, UniProt Q06124); assay: Inhibition of SHP2 (unknown origin) using DiFMUP as substrate incubated for 60 mins followed by substrate addition for 30 mins by microplate reader method
T1 sequence (Q06124 whole entry): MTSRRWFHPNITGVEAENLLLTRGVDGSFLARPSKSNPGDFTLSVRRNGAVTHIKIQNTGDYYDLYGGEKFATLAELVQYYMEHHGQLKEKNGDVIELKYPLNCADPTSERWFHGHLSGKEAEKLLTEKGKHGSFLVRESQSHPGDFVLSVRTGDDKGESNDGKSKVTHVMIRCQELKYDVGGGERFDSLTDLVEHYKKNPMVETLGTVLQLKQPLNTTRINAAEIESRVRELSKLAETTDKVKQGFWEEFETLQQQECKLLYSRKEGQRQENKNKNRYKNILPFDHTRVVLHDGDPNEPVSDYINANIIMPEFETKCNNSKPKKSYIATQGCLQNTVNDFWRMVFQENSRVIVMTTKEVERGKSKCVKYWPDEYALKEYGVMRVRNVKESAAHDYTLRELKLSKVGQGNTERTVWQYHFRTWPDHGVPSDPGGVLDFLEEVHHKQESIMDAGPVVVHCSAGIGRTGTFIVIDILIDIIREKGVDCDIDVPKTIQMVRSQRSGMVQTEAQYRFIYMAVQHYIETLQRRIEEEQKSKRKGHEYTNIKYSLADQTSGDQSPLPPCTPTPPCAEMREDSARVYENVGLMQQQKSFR

[2] = Terminal half life in ICR mouse at 1 mg/kg, iv measured upto 24 hrs by LC-MS/MS analysis; type: ADME, organism-based; settings: in vivo, read-out: beta t1/2 (converted)
[3] = Toxicity in BALB/c nude mouse implanted with mouse EMT6 cells assessed as body weight loss at 40 mg/kg, po qd and measured every 2 days for 18 days; type: organism-based; settings: in vivo, 432 h, time 18 day
[4] = target: T2, Tyrosine-protein phosphatase non-receptor type 11 (Homo sapiens) (UniProt Q06124); assay: Inhibition of SHP2 downstream signalling in human MDA-MB-231 cells assessed as decrease in pERK1/2 protein level measured after 72 hrs by Western blot analysis; type: cell-based; settings: dose 1.25-20 µM, DDE = dose-dependent effect
T2 sequence (whole entry): T1 sequence (Q06124 whole entry)

[5] = Oral bioavailability in ICR mouse at 10 mg/kg measured upto 24 hrs by LC-MS/MS analysis; type: ADME, organism-based; settings: in vivo
MDA-MB-231 [6] = assay: Induction of apoptosis in human MDA-MB-231 cells assessed as late apoptotic cells at 3 uM measured after 48 hrs by Annexin V-FITC/PI staining based flow cytometric analysis (reference value: 1.06%); type: functional
MDA-MB-231 [7] = assay: Induction of cell cycle arrest in human MDA-MB-231 cells assessed as accumulation of cells in G2/M phase at 3 uM incubated for 48 hrs by RNase/propidium iodide staining based flow cytometry analysis (reference value: 2.7%); type: functional
[8] = Inhibition of recombinant N-terminal GST/His6-fusion tagged human CDK1/Cyclin B expressed in Sf9 insect cells incubated for 20 mins followed by [33P]gamma-ATP addition and measured after 2 hrs by radiometric HotSpot Kinase assay
CDK6/cyclin D3 = CDK6/cyclin D3 (Homo sapiens, UniProt Q00534); assay: Inhibition of recombinant N-terminal GST/His6-fusion tagged human CDK6/Cyclin D3 expressed in Sf9 insect cells incubated for 20 mins followed by [33P]gamma-ATP addition and measured after 2 hrs by radiometric HotSpot Kinase assay
Sequence of CDK6/cyclin D3 (P30281 whole entry, the tested form may be a part): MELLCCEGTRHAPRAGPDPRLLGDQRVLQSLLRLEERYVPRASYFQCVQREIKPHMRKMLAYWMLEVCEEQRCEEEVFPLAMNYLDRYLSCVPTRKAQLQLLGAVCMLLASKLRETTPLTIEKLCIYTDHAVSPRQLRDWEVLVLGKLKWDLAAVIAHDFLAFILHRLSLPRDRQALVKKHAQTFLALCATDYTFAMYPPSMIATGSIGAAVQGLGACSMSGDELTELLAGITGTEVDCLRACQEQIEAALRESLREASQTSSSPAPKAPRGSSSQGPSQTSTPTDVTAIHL
Sequence of CDK6/cyclin D3 (Q00534 whole entry, the tested form may be a part): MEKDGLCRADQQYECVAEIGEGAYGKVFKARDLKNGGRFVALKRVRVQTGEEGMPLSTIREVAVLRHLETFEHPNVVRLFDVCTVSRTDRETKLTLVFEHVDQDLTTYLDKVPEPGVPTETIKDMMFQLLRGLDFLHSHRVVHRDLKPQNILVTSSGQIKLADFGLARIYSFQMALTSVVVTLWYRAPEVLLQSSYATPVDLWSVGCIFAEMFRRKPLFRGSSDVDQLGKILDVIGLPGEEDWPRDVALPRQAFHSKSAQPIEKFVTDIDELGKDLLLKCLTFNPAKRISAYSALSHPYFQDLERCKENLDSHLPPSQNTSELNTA

MDA-MB-231 [9] = assay: Induction of apoptosis in human MDA-MB-231 cells assessed as viable cells at 1 uM measured after 48 hrs by Annexin V-FITC/PI staining based flow cytometric analysis (reference value: 98.04%); type: functional; settings: read-out: Activity
[10] = Toxicity in BALB/c nude mouse implanted with mouse EMT6 cells assessed as mortality at 40 mg/kg, po qd and measured every 2 days for 18 days; type: organism-based; settings: in vivo, 432 h, time 18 day
CDK4/Cyclin D3 [11] = target: T3, CDK4/Cyclin D3 (Homo sapiens, UniProt P11802); assay: Inhibition of recombinant N-terminal GST/His6-fusion tagged human CDK4/Cyclin D3 expressed in Sf9 insect cells incubated for 20 mins followed by [33P]gamma-ATP addition and measured after 2 hrs by radiometric HotSpot Kinase assay
T3 sequence (P11802 whole entry, the tested form may be a part): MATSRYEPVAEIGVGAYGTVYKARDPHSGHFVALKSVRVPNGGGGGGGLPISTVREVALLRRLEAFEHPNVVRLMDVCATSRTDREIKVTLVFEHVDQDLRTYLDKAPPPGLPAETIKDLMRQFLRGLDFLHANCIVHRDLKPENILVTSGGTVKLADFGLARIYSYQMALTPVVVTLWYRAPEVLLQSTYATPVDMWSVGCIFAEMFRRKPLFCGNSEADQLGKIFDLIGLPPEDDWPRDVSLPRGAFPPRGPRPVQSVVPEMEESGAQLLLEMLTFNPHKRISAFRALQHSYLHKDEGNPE
T3 sequence (P30281 whole entry, further chain, the tested form may be a part): as the sequence (P30281 whole entry, the tested form may be a part) above

MDA-MB-231 [12] = assay: Induction of cell cycle arrest in human MDA-MB-231 cells assessed as accumulation of cells in S phase at 3 uM incubated for 48 hrs by RNase/propidium iodide staining based flow cytometry analysis (reference value: […]); type: functional
MDA-MB-231 [13] = assay: Antiproliferative activity against human MDA-MB-231 cells assessed as inhibition of cell growth incubated for 48 hrs by MTT assay; type: functional, cell-based; settings: Homo sapiens, MDA-MB-231, 48 h
[14] = target: Tyrosine-protein phosphatase non-receptor type 6 (Homo sapiens, UniProt P29350); assay: Inhibition of SHP1 (unknown origin) using DiFMUP as substrate preincubated for 20 mins followed by substrate addition and measured for 2 hrs by fluorescence based analysis
Sequence of Tyrosine-protein phosphatase non-receptor type 6 (P29350 whole entry): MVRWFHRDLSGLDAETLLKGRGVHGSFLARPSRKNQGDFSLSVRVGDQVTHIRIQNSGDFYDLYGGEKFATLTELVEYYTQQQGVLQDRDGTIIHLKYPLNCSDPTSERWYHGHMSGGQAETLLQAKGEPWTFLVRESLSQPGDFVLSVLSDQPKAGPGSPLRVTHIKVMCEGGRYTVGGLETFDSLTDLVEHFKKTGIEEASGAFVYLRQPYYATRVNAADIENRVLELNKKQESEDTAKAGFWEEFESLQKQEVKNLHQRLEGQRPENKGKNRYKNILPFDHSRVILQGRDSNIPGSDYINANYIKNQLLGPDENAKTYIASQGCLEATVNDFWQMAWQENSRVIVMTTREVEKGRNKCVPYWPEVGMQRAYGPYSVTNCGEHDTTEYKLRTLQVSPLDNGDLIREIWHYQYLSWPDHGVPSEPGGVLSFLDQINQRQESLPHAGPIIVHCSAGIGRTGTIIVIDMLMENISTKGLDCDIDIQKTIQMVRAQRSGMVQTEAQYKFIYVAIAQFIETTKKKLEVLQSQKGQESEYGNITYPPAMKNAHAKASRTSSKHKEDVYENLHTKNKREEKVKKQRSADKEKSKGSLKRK

EMT6 [15] = assay: Antitumor activity against mouse EMT6 cells implanted in BALB/c mouse syngenic model assessed as increase in infiltration of CD8 positive T cells into tumors at 20 to 40 mg/kg, po qd measured after 18 days by immunohistochemical analysis; type: functional, organism-based; settings: dose 20-40 mg/kg, time 18.0 day
MDA-MB-231 [16] = assay: Upregulation of p-STAT3 protein expression in human MDA-MB-231 cells at 0.25 to 20 uM measured after 72 hrs by Western blot analysis; type: functional, cell-based; settings: dose 0.25-20 µM
EMT6 [17] = assay: Antitumor activity against mouse EMT6 cells implanted in BALB/c mouse syngenic model assessed as increase in infiltration of CD8 positive T cells into tumors at 20 mg/kg, po bid measured after 18 days by immunohistochemical analysis; type: functional, organism-based; settings: time 18.0 day
EMT6 [18] = assay: Antitumor activity against mouse EMT6 cells implanted in BALB/c mouse syngenic model assessed as downregulation of p-retinoblastoma level in tumor at 20 mg/kg, po bid measured after 18 days by immunohistochemical analysis; type: functional, organism-based; settings: time 18.0 day
CDK4/Cyclin D3 [19] = target: T3, CDK4/Cyclin D3; assay: Inhibition of recombinant N-terminal GST/His6-fusion tagged human CDK4/Cyclin D3 expressed in Sf9 insect cells using 5-FAM-IPTSPITTTYFFFKKK as substrate preincubated for 10 mins followed by substrate addition and incubated for 3 hrs in presence of ATP by caliper mobility shift analysis
EMT6 [20] = assay: Antitumor activity against mouse EMT6 cells implanted in BALB/c mouse syngenic model assessed as tumor growth inhibition at 20 mg/kg, po bid and measured after 18 days relative to control; type: functional; settings: EMT6, 432 h, time 18 day, read-out: TGI
[21] = Cmax in ICR mouse at 10 mg/kg, po measured upto 24 hrs by LC-MS/MS analysis; type: ADME, organism-based; set-up: time < 24 hrs, dose 10 mg/kg, route po; settings: in vivo
[22] = target: Cyclin-dependent kinase 13/Cyclin-K (Homo sapiens, UniProt Q14004); assay: Inhibition of recombinant N-terminal GST/His6-fusion tagged human CDK13/Cyclin K expressed in Sf9 insect cells incubated for 20 mins followed by [33P]gamma-ATP addition and measured after 2 hrs by radiometric HotSpot Kinase assay
Sequence of Cyclin-dependent kinase 13/Cyclin-K (Q14004 whole entry, the tested form may be a part): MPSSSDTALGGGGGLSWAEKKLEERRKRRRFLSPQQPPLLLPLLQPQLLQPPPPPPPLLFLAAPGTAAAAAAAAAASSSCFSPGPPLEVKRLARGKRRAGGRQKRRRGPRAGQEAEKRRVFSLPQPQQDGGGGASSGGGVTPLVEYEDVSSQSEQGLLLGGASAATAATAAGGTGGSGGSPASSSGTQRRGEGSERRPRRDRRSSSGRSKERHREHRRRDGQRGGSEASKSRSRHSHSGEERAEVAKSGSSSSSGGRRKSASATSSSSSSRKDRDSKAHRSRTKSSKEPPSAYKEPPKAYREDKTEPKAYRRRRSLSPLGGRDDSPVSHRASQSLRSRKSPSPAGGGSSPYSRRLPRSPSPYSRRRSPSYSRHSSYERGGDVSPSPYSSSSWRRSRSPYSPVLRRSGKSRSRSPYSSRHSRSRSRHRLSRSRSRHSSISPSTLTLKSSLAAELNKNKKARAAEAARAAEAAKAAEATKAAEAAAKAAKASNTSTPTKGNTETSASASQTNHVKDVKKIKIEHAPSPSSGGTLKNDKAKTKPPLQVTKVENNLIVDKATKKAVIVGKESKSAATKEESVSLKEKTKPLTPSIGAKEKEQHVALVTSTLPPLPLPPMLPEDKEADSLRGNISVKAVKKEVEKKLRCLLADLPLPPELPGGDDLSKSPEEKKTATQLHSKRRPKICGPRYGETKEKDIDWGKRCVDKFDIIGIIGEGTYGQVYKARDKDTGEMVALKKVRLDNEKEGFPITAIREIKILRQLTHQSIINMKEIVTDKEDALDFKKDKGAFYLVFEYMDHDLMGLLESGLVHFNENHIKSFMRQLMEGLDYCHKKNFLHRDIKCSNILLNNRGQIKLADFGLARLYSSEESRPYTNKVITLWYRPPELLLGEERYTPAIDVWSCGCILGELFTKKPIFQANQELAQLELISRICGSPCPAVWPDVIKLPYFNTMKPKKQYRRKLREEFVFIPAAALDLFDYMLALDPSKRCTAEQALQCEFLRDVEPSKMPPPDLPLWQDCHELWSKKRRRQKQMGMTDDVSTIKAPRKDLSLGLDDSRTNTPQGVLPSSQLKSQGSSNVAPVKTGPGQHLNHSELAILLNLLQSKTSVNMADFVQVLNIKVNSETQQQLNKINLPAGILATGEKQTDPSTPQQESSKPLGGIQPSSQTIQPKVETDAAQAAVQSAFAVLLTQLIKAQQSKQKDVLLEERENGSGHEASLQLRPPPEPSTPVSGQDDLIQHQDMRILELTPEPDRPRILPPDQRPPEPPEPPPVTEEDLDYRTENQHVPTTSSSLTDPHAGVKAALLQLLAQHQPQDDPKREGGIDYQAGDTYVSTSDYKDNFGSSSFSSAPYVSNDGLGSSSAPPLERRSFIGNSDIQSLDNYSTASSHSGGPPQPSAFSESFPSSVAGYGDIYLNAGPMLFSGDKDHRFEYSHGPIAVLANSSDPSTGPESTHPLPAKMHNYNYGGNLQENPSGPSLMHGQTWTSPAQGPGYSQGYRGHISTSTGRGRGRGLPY
Sequence of Cyclin-dependent kinase 13/Cyclin-K (O75909 whole entry, further chain, the tested form may be a part): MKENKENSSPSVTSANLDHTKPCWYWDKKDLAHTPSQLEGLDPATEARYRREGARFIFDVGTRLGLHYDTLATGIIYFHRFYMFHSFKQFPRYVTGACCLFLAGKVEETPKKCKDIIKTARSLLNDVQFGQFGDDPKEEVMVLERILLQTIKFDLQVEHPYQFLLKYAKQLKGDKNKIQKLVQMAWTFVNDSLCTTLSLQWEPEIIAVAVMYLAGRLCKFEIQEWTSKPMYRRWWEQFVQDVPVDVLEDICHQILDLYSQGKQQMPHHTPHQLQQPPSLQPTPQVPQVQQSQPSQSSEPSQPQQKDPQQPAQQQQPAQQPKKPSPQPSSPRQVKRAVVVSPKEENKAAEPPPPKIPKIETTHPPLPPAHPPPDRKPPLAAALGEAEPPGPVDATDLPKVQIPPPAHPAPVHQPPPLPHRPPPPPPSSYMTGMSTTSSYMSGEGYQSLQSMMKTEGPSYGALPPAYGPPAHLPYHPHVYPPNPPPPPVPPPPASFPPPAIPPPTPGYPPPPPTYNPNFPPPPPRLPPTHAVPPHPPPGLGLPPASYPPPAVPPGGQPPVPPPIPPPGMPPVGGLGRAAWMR

[23] = target: Cyclin-dependent kinase 5/CDK5 activator 1 (Homo sapiens, UniProt Q00535); assay: Inhibition of recombinant full length N-terminal GST/His6-fusion tagged human CDK5/P25 expressed in Sf9 insect cells incubated for 20 mins followed by [33P]gamma-ATP addition and measured after 2 hrs by radiometric HotSpot Kinase assay
Sequence of Cyclin-dependent kinase 5/CDK5 activator 1 (Q00535 whole entry, the tested form may be a part): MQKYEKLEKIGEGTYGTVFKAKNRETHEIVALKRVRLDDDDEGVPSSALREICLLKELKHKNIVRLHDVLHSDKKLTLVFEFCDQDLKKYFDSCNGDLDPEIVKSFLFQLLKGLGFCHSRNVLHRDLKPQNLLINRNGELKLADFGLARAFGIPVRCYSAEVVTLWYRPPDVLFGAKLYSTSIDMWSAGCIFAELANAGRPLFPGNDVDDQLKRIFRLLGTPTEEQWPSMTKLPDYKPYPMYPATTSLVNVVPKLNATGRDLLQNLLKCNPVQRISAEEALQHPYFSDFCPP
Sequence of Cyclin-dependent kinase 5/CDK5 activator 1 (Q15078 whole entry, further chain, the tested form may be a part): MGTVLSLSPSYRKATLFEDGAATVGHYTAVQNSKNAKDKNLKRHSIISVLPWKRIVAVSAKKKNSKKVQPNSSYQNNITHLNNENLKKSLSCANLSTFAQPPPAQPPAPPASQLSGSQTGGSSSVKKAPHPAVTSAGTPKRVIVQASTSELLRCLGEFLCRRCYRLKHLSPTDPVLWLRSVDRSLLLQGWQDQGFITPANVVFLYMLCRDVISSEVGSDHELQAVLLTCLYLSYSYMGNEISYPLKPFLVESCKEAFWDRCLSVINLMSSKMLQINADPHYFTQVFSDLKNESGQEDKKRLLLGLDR

Cc1nc2c(F)cc(-c3nc(Nc4nccc(Sc5cnc(N6CCC7(CC6)CO[C@@H](C)[C@H]7N)cn5)c4Cl)ncc3F)cc2n1C(C)C
IC50 [1]: 4.3 nM
half-life [2]: 2.11 h
Activity [3]: Non-Toxic
inhibition [4]: Dde
bioavailability [5]: 45.8%
Activity (MDA-MB-231 [6]): 7.25%
Activity (MDA-MB-231 [7]): 1.5%
IC50 [8]: 210 nM
IC50 (CDK6/cyclin D3): 634 nM
viability at 1 µM (MDA-MB-231 [9]): 86.3%
Activity [10]: Non-Toxic
IC50 (CDK4/Cyclin D3 [11]): 18.2 nM
Activity (MDA-MB-231 [12]): 39.6%
IC50 (MDA-MB-231 [13]): 5570 nM
IC50 [14]: > 20000 nM
Activity (EMT6 [15]): Active
Activity (MDA-MB-231 [16]): Active
Activity (EMT6 [17]): Active
Activity (EMT6 [18]): Active
IC50 (CDK4/Cyclin D3 [19]): 18.2 nM
inhibition in vivo at 20 mg/kg (EMT6 [20]): 89%
Cmax [21]: 634 ng/mL
IC50 [22]: > 1000 nM
IC50 [23]: 540 nM
